# Test results taken from ChEMBL document CHEMBL4507281, “Data for DCP probe BI-4394” (2021).
# Assays:
# [1] = target: Ribosomal protein S6 kinase alpha-2 (Homo sapiens) (UniProt Q15349); conditions: Compound concentration 100.0 nM
# [2] = target: Aurora kinase B (Homo sapiens) (UniProt Q96GD4); conditions: Compound concentration 100.0 nM
# [3] = target: Serine/threonine-protein kinase PLK3 (Homo sapiens) (UniProt Q9H4B4); conditions: Compound concentration 100.0 nM
# [4] = target: TRAF2 and NCK-interacting protein kinase (Homo sapiens) (UniProt Q9UKE5); conditions: Compound concentration 100.0 nM
# Chain of TRAF2 and NCK-interacting protein kinase (Homo sapiens) (Q9UKE5 whole entry, looked up): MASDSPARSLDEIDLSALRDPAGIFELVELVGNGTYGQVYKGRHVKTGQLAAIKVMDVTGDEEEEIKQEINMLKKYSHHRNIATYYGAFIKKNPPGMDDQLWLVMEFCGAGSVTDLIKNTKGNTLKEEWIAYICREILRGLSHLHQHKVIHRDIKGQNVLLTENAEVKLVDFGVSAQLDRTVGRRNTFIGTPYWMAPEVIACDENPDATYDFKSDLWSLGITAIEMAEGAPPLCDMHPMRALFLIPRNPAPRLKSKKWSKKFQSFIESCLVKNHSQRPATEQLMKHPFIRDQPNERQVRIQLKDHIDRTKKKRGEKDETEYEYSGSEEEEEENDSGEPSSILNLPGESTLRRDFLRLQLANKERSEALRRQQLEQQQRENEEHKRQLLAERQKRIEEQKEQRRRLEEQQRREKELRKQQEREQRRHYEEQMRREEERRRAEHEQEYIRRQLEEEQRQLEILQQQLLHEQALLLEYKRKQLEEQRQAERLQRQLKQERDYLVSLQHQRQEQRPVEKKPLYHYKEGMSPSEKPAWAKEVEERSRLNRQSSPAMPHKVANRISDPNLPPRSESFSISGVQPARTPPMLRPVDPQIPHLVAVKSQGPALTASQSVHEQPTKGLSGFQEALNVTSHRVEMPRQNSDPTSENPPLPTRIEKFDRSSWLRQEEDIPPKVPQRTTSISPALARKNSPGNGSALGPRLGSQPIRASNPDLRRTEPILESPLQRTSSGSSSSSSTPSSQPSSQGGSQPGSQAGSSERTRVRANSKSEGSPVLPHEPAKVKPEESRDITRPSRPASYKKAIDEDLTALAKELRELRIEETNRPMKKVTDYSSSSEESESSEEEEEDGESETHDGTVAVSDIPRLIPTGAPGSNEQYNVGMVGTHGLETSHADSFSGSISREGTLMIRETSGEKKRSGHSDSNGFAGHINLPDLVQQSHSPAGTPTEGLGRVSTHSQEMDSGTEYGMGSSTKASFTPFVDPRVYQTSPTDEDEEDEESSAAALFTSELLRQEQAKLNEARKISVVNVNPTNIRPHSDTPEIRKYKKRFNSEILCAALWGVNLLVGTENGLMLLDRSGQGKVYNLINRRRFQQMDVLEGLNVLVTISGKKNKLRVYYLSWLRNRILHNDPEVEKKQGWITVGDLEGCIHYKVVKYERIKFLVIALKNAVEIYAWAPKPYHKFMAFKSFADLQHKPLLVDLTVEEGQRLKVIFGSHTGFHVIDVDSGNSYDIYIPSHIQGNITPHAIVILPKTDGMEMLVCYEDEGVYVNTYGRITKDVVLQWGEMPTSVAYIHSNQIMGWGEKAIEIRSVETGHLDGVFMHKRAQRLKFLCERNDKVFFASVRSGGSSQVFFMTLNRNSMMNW
# [5] = target: Receptor-interacting serine/threonine-protein kinase 1 (Homo sapiens) (UniProt Q13546); conditions: Compound concentration 100.0 nM
# [6] = system: Hepatocyte growth factor receptor (Homo sapiens), P08581 [M1250T]; conditions: Compound concentration 100.0 nM
# [7] = system: Tyrosine-protein kinase ABL1 (Homo sapiens), P00519 [H396P]; conditions: Compound concentration 100.0 nM
# [8] = target: SRSF protein kinase 2 (Homo sapiens) (UniProt P78362); conditions: Compound concentration 100.0 nM
# [9] = target: cGMP-dependent protein kinase 1 (Homo sapiens) (UniProt Q13976); conditions: Compound concentration 100.0 nM
# Chain of cGMP-dependent protein kinase 1 (Homo sapiens) (Q13976 whole entry): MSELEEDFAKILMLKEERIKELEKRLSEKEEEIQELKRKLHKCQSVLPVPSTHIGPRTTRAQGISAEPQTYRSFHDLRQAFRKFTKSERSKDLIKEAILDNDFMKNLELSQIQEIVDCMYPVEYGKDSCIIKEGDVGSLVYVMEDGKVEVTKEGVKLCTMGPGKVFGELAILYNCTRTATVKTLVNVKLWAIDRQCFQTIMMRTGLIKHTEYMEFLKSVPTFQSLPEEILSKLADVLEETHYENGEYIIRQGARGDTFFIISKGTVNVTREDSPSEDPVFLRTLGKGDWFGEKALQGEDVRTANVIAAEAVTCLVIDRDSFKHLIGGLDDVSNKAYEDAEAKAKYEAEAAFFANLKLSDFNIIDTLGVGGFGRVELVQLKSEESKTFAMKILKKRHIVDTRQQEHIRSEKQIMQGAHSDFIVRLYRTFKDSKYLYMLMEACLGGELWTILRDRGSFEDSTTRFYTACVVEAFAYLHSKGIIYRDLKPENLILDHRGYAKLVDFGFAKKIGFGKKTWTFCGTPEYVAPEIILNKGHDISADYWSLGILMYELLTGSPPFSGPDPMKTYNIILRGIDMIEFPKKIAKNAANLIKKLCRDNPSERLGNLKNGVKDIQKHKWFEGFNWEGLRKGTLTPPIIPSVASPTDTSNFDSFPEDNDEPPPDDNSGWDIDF
# [10] = target: Myosin-IIIa (Homo sapiens) (UniProt Q8NEV4); conditions: Compound concentration 100.0 nM
# [11] = target: Activated CDC42 kinase 1 (Homo sapiens) (UniProt Q07912); conditions: Compound concentration 100.0 nM
# [12] = target: Dual specificity protein kinase TTK (Homo sapiens) (UniProt P33981); conditions: Compound concentration 100.0 nM
# [13] = target: Cyclin-dependent kinase 11A (Homo sapiens) (UniProt Q9UQ88); conditions: Compound concentration 100.0 nM
# [14] = target: Serine/threonine-protein kinase MRCK alpha (Homo sapiens) (UniProt Q5VT25); conditions: Compound concentration 100.0 nM
# [15] = target: Leukocyte tyrosine kinase receptor (Homo sapiens) (UniProt P29376); conditions: Compound concentration 100.0 nM
# [16] = target: Cyclin-dependent kinase-like 3 (Homo sapiens) (UniProt Q8IVW4); conditions: Compound concentration 100.0 nM
# [17] = target: Homeodomain-interacting protein kinase 3 (Homo sapiens) (UniProt Q9H422); conditions: Compound concentration 100.0 nM
# [18] = target: Mitogen-activated protein kinase 15 (Homo sapiens) (UniProt Q8TD08); conditions: Compound concentration 100.0 nM
# [19] = target: 5'-AMP-activated protein kinase catalytic subunit alpha-1 (Homo sapiens) (UniProt Q13131); conditions: Compound concentration 100.0 nM
# [20] = target: Ribosomal protein S6 kinase alpha-6 (Homo sapiens) (UniProt Q9UK32); conditions: Compound concentration 100.0 nM
# [21] = target: Dual specificity tyrosine-phosphorylation-regulated kinase 1B (Homo sapiens) (UniProt Q9Y463); conditions: Compound concentration 100.0 nM
# Chain of Dual specificity tyrosine-phosphorylation-regulated kinase 1B (Homo sapiens) (Q9Y463 whole entry, looked up): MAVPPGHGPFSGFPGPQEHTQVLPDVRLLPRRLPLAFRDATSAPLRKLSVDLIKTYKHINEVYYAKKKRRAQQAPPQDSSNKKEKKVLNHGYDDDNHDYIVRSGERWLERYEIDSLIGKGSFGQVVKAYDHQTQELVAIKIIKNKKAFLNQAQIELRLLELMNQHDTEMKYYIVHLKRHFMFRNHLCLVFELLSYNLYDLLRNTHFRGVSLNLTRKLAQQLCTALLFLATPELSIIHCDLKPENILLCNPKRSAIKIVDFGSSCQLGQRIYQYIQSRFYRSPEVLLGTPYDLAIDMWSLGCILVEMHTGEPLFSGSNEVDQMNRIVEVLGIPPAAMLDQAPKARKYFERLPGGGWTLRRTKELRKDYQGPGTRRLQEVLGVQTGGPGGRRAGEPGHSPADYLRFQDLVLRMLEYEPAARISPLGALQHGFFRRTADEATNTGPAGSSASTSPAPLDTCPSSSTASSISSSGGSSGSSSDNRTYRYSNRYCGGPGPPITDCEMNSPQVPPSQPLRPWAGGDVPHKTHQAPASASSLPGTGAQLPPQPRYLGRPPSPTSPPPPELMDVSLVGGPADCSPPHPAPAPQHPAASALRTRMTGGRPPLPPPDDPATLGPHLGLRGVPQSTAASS
# [22] = target: Muscle, skeletal receptor tyrosine-protein kinase (Homo sapiens) (UniProt O15146); conditions: Compound concentration 100.0 nM
# [23] = target: 5'-AMP-activated protein kinase catalytic subunit alpha-2 (Homo sapiens) (UniProt P54646); conditions: Compound concentration 100.0 nM
# [24] = target: Insulin receptor-related protein (Homo sapiens) (UniProt P14616); conditions: Compound concentration 100.0 nM
# [25] = target: Rho-associated protein kinase 2 (Homo sapiens) (UniProt O75116); conditions: Compound concentration 100.0 nM
# [26] = target: Mitogen-activated protein kinase kinase kinase kinase 4 (Homo sapiens) (UniProt O95819); conditions: Compound concentration 100.0 nM
# Chain of Mitogen-activated protein kinase kinase kinase kinase 4 (Homo sapiens) (O95819 2-1239 limits assumed): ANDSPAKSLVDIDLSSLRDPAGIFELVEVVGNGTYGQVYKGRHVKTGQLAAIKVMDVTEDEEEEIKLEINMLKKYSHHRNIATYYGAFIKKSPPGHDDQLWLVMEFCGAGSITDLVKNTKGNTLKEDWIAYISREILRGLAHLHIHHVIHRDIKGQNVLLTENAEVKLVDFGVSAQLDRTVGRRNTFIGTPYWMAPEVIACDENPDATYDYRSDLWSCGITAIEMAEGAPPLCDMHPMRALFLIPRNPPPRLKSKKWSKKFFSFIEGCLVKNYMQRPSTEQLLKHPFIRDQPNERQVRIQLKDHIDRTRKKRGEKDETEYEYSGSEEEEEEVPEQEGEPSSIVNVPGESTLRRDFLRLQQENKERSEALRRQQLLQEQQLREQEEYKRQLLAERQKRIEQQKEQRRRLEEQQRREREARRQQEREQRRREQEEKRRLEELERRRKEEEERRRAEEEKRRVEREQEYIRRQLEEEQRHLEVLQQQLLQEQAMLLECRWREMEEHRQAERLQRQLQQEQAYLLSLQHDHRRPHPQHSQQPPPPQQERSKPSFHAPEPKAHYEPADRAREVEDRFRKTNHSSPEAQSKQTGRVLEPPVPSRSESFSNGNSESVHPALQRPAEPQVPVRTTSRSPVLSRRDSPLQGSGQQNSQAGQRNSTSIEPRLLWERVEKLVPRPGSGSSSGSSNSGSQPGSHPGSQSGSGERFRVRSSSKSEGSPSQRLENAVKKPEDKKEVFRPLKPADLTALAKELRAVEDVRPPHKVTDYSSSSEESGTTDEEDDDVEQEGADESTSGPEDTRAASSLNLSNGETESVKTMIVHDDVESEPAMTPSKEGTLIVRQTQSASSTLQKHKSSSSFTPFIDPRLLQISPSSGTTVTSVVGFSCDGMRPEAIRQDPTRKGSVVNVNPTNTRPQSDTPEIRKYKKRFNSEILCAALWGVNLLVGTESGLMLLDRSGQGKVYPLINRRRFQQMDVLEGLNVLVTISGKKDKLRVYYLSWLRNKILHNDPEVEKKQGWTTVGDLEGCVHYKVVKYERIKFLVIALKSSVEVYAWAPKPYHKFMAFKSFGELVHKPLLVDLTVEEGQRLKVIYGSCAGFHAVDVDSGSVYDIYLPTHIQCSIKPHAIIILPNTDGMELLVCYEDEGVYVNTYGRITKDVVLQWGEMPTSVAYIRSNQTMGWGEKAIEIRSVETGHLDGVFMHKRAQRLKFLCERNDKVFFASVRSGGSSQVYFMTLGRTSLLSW
# [27] = target: 5-hydroxytryptamine receptor 1B (Homo sapiens) (UniProt P28222); conditions: Compound concentration 10.0 uM
# Chain of 5-hydroxytryptamine receptor 1B (Homo sapiens) (P28222 whole entry): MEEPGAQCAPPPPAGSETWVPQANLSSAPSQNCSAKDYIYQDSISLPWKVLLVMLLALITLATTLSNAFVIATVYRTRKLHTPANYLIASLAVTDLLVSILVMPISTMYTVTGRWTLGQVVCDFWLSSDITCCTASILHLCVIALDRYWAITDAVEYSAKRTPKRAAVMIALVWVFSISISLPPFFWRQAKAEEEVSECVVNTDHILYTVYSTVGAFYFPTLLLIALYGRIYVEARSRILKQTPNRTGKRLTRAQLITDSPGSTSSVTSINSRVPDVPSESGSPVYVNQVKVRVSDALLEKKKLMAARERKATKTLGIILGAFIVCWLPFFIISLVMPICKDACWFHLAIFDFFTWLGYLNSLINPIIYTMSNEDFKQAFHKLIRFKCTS
# [28] = target: T1, Inhibitor of nuclear factor kappa-B kinase subunit beta (Homo sapiens) (UniProt O14920); conditions: Compound concentration 100.0 nM
# T1 sequence (whole entry): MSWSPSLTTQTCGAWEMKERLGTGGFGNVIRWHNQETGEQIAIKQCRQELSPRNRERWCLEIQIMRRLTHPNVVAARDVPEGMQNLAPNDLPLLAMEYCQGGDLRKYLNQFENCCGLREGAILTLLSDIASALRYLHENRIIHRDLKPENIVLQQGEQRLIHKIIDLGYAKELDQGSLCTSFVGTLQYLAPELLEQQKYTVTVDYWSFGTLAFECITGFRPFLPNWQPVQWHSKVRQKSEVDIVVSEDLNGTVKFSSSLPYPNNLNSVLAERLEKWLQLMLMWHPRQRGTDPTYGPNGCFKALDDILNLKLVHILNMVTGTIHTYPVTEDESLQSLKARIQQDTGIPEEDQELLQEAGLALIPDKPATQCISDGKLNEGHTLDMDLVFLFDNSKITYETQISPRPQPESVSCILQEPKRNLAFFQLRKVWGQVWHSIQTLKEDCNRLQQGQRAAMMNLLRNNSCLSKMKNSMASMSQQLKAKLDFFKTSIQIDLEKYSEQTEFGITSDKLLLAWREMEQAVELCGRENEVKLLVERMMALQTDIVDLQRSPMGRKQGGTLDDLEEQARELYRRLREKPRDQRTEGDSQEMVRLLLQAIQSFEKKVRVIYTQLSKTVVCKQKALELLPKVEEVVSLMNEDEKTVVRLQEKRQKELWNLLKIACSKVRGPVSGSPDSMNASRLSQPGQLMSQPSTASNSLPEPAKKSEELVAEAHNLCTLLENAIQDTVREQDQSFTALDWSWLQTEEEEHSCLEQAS
# [29] = target: Ribosomal protein S6 kinase alpha-4 (Homo sapiens) (UniProt O75676); conditions: Compound concentration 100.0 nM
# [30] = target: Mitogen-activated protein kinase kinase kinase 10 (Homo sapiens) (UniProt Q02779); conditions: Compound concentration 100.0 nM
# Rattus norvegicus = species on record: Rattus norvegicus; conditions: Compound concentration 10.0 uM
# [31] = target: Dual specificity mitogen-activated protein kinase kinase 6 (Homo sapiens) (UniProt P52564); conditions: Compound concentration 100.0 nM
# Chain of Dual specificity mitogen-activated protein kinase kinase 6 (Homo sapiens) (P52564 whole entry): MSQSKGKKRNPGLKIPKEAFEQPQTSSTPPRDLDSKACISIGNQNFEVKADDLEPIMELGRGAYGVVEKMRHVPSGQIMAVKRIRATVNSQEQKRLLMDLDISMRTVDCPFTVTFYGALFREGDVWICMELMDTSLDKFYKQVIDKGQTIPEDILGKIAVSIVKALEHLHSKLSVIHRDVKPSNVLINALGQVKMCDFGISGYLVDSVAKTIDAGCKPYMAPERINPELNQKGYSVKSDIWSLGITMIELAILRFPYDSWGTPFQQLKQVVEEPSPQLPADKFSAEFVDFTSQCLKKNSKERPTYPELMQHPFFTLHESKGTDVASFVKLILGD
# [32] = target: Ephrin type-B receptor 6 (Homo sapiens) (UniProt O15197); conditions: Compound concentration 100.0 nM
# [33] = target: Aurora kinase C (Homo sapiens) (UniProt Q9UQB9); conditions: Compound concentration 100.0 nM
# [34] = target: Ephrin type-B receptor 1 (Homo sapiens) (UniProt P54762); conditions: Compound concentration 100.0 nM
# [35] = target: Beta-3 adrenergic receptor (Homo sapiens) (UniProt P13945); conditions: Compound concentration 10.0 uM
# Chain of Aurora kinase B (Homo sapiens) (Q96GD4 whole entry): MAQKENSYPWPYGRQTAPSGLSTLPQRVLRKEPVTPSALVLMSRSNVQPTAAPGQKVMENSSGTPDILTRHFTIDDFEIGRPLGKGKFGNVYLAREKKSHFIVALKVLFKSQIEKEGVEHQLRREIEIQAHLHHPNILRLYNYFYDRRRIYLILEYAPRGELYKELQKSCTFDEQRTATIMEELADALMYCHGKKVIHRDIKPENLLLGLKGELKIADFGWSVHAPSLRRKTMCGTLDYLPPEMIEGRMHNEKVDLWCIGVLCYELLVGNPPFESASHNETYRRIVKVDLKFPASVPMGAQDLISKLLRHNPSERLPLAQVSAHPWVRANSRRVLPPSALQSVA
SMILES,residual activity [1],residual activity [2],residual activity [3],residual activity [4],residual activity [5],residual activity [6],residual activity [7],residual activity [8],residual activity [9],residual activity [10],residual activity [11],residual activity [12],residual activity [13],residual activity [14],residual activity [15],residual activity [16],residual activity [17],residual activity [18],residual activity [19],residual activity [20],further results
Cn1nc(C(=O)NCc2ccc(C(=O)O)cc2)cc1-c1ccc2[nH]ccc2c1 [BI 4395],98%,92%,94%,97%,100%,91%,84%,85%,100%,95%,100%,88%,96%,79%,81%,100%,88%,98%,81%,85%,residual activity [21]: 100%; residual activity [22]: 95%; residual activity [23]: 91%; residual activity [24]: 98%; residual activity [25]: 82%; residual activity [26]: 92%; inhibition [27]: 5.48%; residual activity [28]: 93%; residual activity [29]: 81%; residual activity [30]: 100%; inhibition (Rattus norvegicus): 6.39%; residual activity [31]: 100%; residual activity [32]: 96%; residual activity [33]: 76%; residual activity [34]: 87%; inhibition [35]: 2.13%
CCOC(=O)c1cc2cc(-c3cc(C(=O)NCc4ccc(C(=O)O)cc4)nn3C)ccc2[nH]1 [BI 4394],84%,100%,70%,100%,100%,87%,85%,100%,91%,100%,100%,93%,100%,100%,100%,0%,81%,100%,100%,93%,residual activity [21]: 100%; residual activity [22]: 64%; residual activity [23]: 88%; residual activity [24]: 77%; residual activity [25]: 85%; residual activity [26]: 95%; inhibition [27]: 6.12%; residual activity [28]: 100%; residual activity [29]: 86%; residual activity [30]: 70%; inhibition (Rattus norvegicus): -1.91%; residual activity [31]: 100%; residual activity [32]: 77%; residual activity [33]: 100%; residual activity [34]: 100%; inhibition [35]: -6.63%
